Assay results taken from ChEMBL document CHEMBL4229451, “Recent advances in peptidomimetics antagonists targeting estrogen receptor α-coactivator interaction in cancer therapy” (Bioorg Med Chem Lett, 2018).
One block for each molecule: values may come before it. Starred links: 1 amine or outer side, 2 acyl side, 3 side chain; linkers in the order of their positions; H or OH if unused. Positions of bridges follow the written chain, without caps; N, C: chain ends. Non-standard residues stand in square brackets, D forms with d. Residues, ends and D or L forms follow the SMILES beside them. X1 = O=C([C@H](CCC/C=C/[*:3])N[*:1])[*:2]; S5 = C=CCCC[C@](C)(N)C(=O)O

Tests used:
Estrogen receptor beta [1] = target: T1, Estrogen receptor beta (Homo sapiens, UniProt Q92731, C334S/C369S/C481S); experiment: (§1) Binding affinity to recombinant human ERbeta LBD (259 to 498 residues) C334S/C369S/C481S triple mutant expressed in Escherichia coli BL21(DE3) by surface plasmon resonance method
[2] = tested on: Estrogen receptor beta (Homo sapiens), Q92731 [C334S,C369S,C481S]; experiment: as §1
Estrogen receptor [3] = target: T2, Estrogen receptor (Homo sapiens, UniProt P03372); experiment: Binding affinity to recombinant N-terminal His6-tagged ERalpha LBD (unknown origin) (299 to 554 residues) by surface plasmon resonance method
T2 sequence (P03372 whole entry): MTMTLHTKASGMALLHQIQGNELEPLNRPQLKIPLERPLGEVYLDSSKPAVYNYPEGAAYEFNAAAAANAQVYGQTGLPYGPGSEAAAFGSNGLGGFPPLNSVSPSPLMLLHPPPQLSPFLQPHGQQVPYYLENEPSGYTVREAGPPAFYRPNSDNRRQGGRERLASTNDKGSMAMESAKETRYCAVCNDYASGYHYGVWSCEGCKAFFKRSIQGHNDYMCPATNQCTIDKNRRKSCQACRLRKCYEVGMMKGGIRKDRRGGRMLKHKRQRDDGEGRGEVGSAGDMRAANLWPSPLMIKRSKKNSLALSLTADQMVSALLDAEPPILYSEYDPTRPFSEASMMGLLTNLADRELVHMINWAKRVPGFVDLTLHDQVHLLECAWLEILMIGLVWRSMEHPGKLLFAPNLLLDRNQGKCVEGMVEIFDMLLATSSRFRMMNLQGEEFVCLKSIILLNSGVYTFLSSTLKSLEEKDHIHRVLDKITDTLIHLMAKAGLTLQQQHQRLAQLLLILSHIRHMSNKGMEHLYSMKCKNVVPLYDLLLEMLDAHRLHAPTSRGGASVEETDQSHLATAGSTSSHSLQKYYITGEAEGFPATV

[4] = target: T3, Estrogen receptor (Homo sapiens) (UniProt P03372); experiment: (§2) Binding affinity to recombinant human ERalpha LBD (301 to 553 residues) expressed in Escherichia coli BL21(DE3) by surface plasmon resonance method
T3 sequence (whole entry): T2 sequence (P03372 whole entry)

Estrogen receptor [5] = target: T2, Estrogen receptor; experiment: as §2
Estrogen receptor [6] = target: T2, Estrogen receptor; experiment: Displacement of THC-ketone from human ERalpha LBD (304 to 554 residues) expressed in Escherichia coli BL21(DE3) after 1 hr by fluorescence assay
Estrogen receptor beta [7] = target: Estrogen receptor beta (Homo sapiens, UniProt Q92731); experiment: Displacement of FAM-LTERHKILHRLLQEGSPSD from ERbeta (unknown origin) (260 to 502 residues) expressed in Escherichia coli rosetta (DE3) after 1 hr by fluorescence polarization assay
Estrogen receptor [8] = target: T2, Estrogen receptor; experiment: Displacement of FAM-LTERHKILHRLLQEGSPSD from ERalpha (unknown origin) (302 to 552 residues) expressed in Escherichia coli rosetta (DE3) after 1 hr by fluorescence polarization assay
Estrogen receptor [9] = target: T2, Estrogen receptor; experiment: Binding affinity to recombinant human ERalpha LBD (301 to 553 residues) expressed in Escherichia coli BL21(DE3) using FAM-labelled compound after 1 hr by fluorescence polarization method
Estrogen receptor beta [10] = target: T1, Estrogen receptor beta; experiment: Binding affinity to recombinant human ERbeta LBD (259 to 498 residues) C334S/C369S/C481S triple mutant expressed in Escherichia coli BL21(DE3) using FAM-labelled compound after 1 hr by fluorescence polarization method
[11] = Half life in rabbit serum at 100 uM by RP-HPLC method; assay type: ADME, cell-free, Oryctolagus cuniculus

T1 sequence (Q92731 whole entry C334S/C369S/C481S, the tested form may be a part): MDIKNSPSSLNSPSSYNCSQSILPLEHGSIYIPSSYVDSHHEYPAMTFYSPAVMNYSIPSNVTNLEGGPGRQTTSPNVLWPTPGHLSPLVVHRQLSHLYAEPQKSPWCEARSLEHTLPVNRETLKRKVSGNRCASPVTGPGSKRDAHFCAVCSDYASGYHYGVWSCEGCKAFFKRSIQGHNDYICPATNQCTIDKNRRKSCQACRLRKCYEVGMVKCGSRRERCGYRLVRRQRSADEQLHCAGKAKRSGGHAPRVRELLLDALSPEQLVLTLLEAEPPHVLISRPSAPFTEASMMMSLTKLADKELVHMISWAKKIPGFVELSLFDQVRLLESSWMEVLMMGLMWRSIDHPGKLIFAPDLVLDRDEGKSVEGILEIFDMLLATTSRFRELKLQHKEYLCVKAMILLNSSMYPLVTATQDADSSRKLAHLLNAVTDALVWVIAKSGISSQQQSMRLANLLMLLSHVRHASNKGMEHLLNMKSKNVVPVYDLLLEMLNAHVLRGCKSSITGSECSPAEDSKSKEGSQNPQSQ
Estrogen receptor beta (Homo sapiens, UniProt Q92731), sequence (Q92731 whole entry, the tested form may be a part): as the sequence (Q92731 whole entry C334S/C369S/C481S, the tested form may be a part) above, with S334C, S369C, S481C counted along it
Estrogen receptor beta (Homo sapiens), Q92731 [C334S,C369S,C481S], sequence (Q92731 whole entry C334S/C369S/C481S, the tested form may be a part): as the sequence (Q92731 whole entry C334S/C369S/C481S, the tested form may be a part) above

SMILES: CC[C@H](C)[C@H](NC(=O)[C@H](CCCCN)NC(=O)[C@H](Cc1cnc[nH]1)NC(C)=O)C(=O)N[C@@H](CC(C)C)C(=O)N[C@@H](Cc1cnc[nH]1)C(=O)N[C@@H](CCCNC(=N)N)C(=O)N[C@@H](CC(C)C)C(=O)N[C@@H](CC(C)C)C(=O)N[C@@H](CCC(N)=O)C(=O)N[C@@H](CC(=O)O)C(=O)N[C@@H](CO)C(N)=O (Ac-HKILHRLLQDS-NH2)
- Kd (Estrogen receptor beta [1]): 5000 nM
- Kdiss [2]: 0.376 s⁻¹
- Kd (Estrogen receptor [3]): 2600 nM
- Kdiss [4]: 0.347 s⁻¹
- Kd (Estrogen receptor [5]): 2500 nM

- Kd (Estrogen receptor [3]): 19 nM
SMILES: CC(=O)N[C@@H](CCCNC(=N)N)C(=O)N[C@@H](CCCNC(=N)N)C(=O)N[C@@H](CCCNC(=N)N)C(=O)N[C@@H](CCCNC(=N)N)C(=O)N[C@@H](CCCCN)C(=O)N[C@@]1(C)CCC/C=C\CCC[C@@](C)(C(=O)N[C@@H](CC(C)C)C(=O)N[C@@H](CCC(N)=O)C(=O)N[C@@H](CC(=O)O)C(=O)N[C@@H](CO)C(N)=O)NC(=O)[C@H](CCCNC(=N)N)NC(=O)[C@H](Cc2cnc[nH]2)NC(=O)[C@H](CC(C)C)NC1=O (Ac-RRRRK[S5]LHR[S5]LQDS-NH2; staple (Z) 6-10)

- Kd (Estrogen receptor [6]): 900 nM
SMILES: CC[C@H](C)[C@H](NC(=O)[C@H](CCCCN)NC(=O)[C@H](Cc1cnc[nH]1)NC(=O)[C@H](CCCNC(=N)N)NC(=O)[C@H](CCC(=O)O)NC(=O)[C@@H](NC(=O)[C@H](CC(C)C)NC(=O)[C@@H](N)CS)[C@@H](C)O)C(=O)N[C@@H](CC(C)C)C(=O)N[C@@H](Cc1cnc[nH]1)C(=O)N[C@@H](CCCNC(=N)N)C(=O)N[C@@H](CC(C)C)C(=O)N[C@@H](CC(C)C)C(=O)N[C@@H](CCC(N)=O)C(=O)N[C@@H](CCC(=O)O)C(N)=O (H-CLTERHKILHRLLQE-NH2)

- Ki (Estrogen receptor beta [7]): 3640 nM
- Ki (Estrogen receptor [8]): 1540 nM
SMILES: CSCC[C@H](NC(=O)[C@H](CC(C)C)NC(=O)[C@H](CC(C)C)NC(=O)[C@@H]1CCCN1C(=O)[C@@H](N)Cc1cnc[nH]1)C(=O)N[C@@H](CCCNC(=N)N)C(=O)N[C@@H](CC(C)C)C(=O)N[C@@H](CC(C)C)C(=O)N[C@@H](Cc1cnc[nH]1)C(=O)N[C@@H](Cc1cnc[nH]1)C(=O)N1CCC[C@H]1C(=O)N[C@@H](CO)C(N)=O (H-HPLLMRLLHHPS-NH2)

- Ki (Estrogen receptor beta [7]): 25 nM
- Ki (Estrogen receptor [8]): 185 nM
SMILES: CSCC[C@H](NC(=O)[C@H](CC(C)C)NC(=O)[C@H](CC(C)C)NC(=O)[C@@H]1CCCN1C(=O)[C@@H](N)Cc1cnc[nH]1)C(=O)N[C@@H](CCCNC(=N)N)C(=O)N[C@@H](CC(C)C)C(=O)N[C@@H](CC(C)C)C(=O)N[C@@H](CC(C)C)C(=O)N[C@@H](CO)C(=O)N1CCC[C@H]1C(N)=O (H-HPLLMRLLLSP-NH2)

- Kd (Estrogen receptor [9]): 101 nM
- Kd (Estrogen receptor beta [10]): 178 nM
- half-life at 100 µM [11]: 18.2 h
SMILES: CC[C@H](C)[C@@H]1NC(=O)[C@@H](NC(=O)[C@H](CCCNC(=N)N)NC(=O)[C@H](CCCCN)NC(=O)[C@@H](N)Cc2c[nH]c3ccccc23)CS/C=C/CCC[C@@H](C(=O)N[C@@H](CC(C)C)C(=O)N[C@@H](CC(C)C)C(=O)N[C@@H](CCC(N)=O)C(=O)N[C@@H](CCC(=O)O)C(N)=O)NC(=O)[C@H](CCCNC(=N)N)NC(=O)[C@H](CC(C)C)NC1=O (H-WKRCILR[X1]LLQE-NH2; thioether 4-8)
